Measured values published in patent publication US5776932A, “1,3,5-tribsubstituted indazole derivatives, processes for preparing, and for pharmacological treatment therewith” (Arzneimittelwerk Dresden G.m.b.H., priority 1996, dated 1998).

How the values were obtained:
[1] = target: T1, arachidonate-5-lipoxygenase (Rattus norvegicus, UniProt P12527); test: Inhibition of 5-lipoxygenase in prepared macrophages from Wistar rats; assay type: cell-based; conditions: quadruple determinations, mean IC50, read-out: IC50 (50% inhibition of 5-lipoxygenase)
T1 construct: using prepared macrophages from Wistar rats; endogenous in cells; host or cells: prepared macrophages from Wistar rats
T1 sequence (P12527 1-673): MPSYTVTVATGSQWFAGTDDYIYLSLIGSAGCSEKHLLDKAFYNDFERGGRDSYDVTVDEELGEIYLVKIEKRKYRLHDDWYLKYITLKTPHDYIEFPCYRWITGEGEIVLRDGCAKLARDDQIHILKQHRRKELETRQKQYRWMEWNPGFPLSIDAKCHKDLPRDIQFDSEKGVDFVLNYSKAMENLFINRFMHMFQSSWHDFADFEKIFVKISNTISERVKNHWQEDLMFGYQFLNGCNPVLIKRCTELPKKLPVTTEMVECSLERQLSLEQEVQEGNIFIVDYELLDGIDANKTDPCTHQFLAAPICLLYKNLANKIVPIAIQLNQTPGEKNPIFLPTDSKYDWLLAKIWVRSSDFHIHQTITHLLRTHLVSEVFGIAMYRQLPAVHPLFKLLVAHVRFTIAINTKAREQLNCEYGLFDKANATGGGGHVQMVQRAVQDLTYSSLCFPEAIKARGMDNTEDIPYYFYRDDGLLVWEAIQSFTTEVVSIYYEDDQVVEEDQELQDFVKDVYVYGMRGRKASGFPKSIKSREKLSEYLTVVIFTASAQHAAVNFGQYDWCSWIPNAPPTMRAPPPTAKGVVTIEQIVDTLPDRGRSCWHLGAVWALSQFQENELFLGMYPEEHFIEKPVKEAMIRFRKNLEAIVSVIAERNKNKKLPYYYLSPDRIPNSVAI
Source text: Murphy, R. C. and Matthews, W. R., Purification and Characterization of Leukotrienes from Mastocytoma Cells, Methods in Enzymology, 86, pp. 409-416.
Argentiere, D. D., Ritchie, D. M. et al., Tepoxalin: A Dual Cyclooxygenase/5-Lipoxygenase Inhibitor of Arachidonic Acid Metabolism with Potent Anti-inflammatory Activity and a Favorable Gastrointestinal Profile, The Journal of Pharmacology and Experimental Therapeutics, Vol. 271, No. 3, 1399-1408, 1994.
Carter, G. W., Young, P. R. et al., 5-Lipoxygenase Inhibitory activity of Zileuton, The Journal of Pharmacology and Experimental Therapeutics, Vol. 256, No. 3, 1991.
The experiments were all conducted as quadruple determinations, by combining four partial experiments in each case were combined to determine the mean IC50 value.

late phase eosinophilia = test: Inhibition of late phase eosinophilia 24 hours after the inhalational ovalbumin challenge on actively sensitized guinea-pigs; assay type: in vivo; conditions: -2 h; for EOS, B (eosinophils in the group treated with the substance, with challenge): x ± s
Source text: Eosinophilic granulocytes play an important part in the transition of allergic diseases, e.g. bronchial asthma, to the chronic stage. Thus the bronchoalveolar lavage fluid (BAL) contains an increased number of eosinophils a few hours after an allergen-induced asthmatic attack. Eosinophils are expected to play an important part in cell damage since they contain histotoxic proteins, like major basic protein (MBP) and eosinophil cation protein (ECP), in their granula. It is also assumed that substances which prevent the infiltration of eosinophils have a therapeutic action against allergic diseases like bronchial asthma.
The inhibition of eosinophil infiltration by the substances was tested in vivo on guinea-pigs actively sensitized against ovalbumin by the substantenous administration of 10 μg of OA, with 1 μg of aluminum hydroxide adjuvant, three weeks before the beginning of the experiment, and a booster dose containing the same amount of OA and aluminum hydroxide was administrated substantaneously one week before the beginning of the experiment. Three weeks after the first sensitization, the animals were placed in a plastic box and exposed to an aerosol of 0.5% OA dissolved in a physiological saline solution. The nebulization time was 20-30 seconds. After 24 hours the animals were intraperitoneally anaesthetized with 1.5 g/kg body weight ethylurethane and a bronchioalveolar lavage was performed with 2×5 ml of physiological saline solution. The lavage fluid was collected and centrifuged at 400 G for 10 minutes and the cell pellet was then resuspended in 1 ml of physiological saline solution. The eosinophils were microscopically counted in a Neubauer chamber after staining using the No. 5877 Becton-Dickinson test kit for eosinophilia. The number of eosinophils was indicated in millions per animal. Each test was also carried out with two control groups with and without antigen challenge.
The percentage inhibition of the eosinophilia in the experimental groups treated with the substance is calculated by the following formula:
(A-C)-(B-C)/(A-C)×100=% inhibition
The test substances were administered orally or intraperitoneally as a triturate in 0.5% 5-hydroxyethylcellulose two hours before the antigen challenge.

[2] = system: SRS-A bronchoconstriction in guinea-pigs sensitized with ovalbumin; test: SRS-A bronchoconstriction in anaesthetized, ovalbumin-sensitized guinea-pigs after inhalation of antigen; assay type: in vivo; conditions: -2 hrs, 1% OA, 20 inspirations
Protocol: For this purpose, guinea-pigs are actively sensitized against ovalbumin (OA) with 20 μg OA+20 mg Al(OH)3 in 0.5 ml, administered intraperitoneally (i.p.) and a booster dose of the same is administered 14 days later. One week after the booster dose, the animals are i.p. anaesthetized with urethane and connected to an apparatus (Mumed Physiological Recorder 800) for the determination of pulmonary function parameters. The animals are pretreated with mepyramine to antagonize the histamine, with indomethacin to inhibit the formation of prostaglandins, and with propanolol to eliminate β-adrenergic mechanisms. If an allergic reaction is induced after this treatment, the associated bronchospam is extensively attributable to the effect of leukotrienes.
Before the experiment the test substances were administered orally two hours before the challenge. After an equilibration period an asthmatic challenge attack is induced by the nebulization of a 1% ovalbumin solution over 20 inspirations.
The drop in dynamic compliance is used as a suitable and well reproducible parameter for characterizing the action of leukotrienes. Under control conditions, after pretreatment and ovalbumin challenge, guinea-pigs react with a slow drop in compliance of c. 30-40% over 15 minutes.

[3] = system: tracheal segments from actively sensitized guinea-pigs; test: Inhibition of the antigen (ovalbumin)-induced contraction of isolated tracheal segments from actively sensitized guinea-pigs; design: species or system guinea-pig; conditions: Cavia porcellus, under mepyramine and indomethacin protection, read-out: maximum inhibition (ovalbumin-induced contraction)
Protocol: For this purpose, isolated tracheal segments from guinea-pigs actively sensitized against ovalbumin by the s.c. administration of 10 μg of ovalbumin with 1 mg of aluminum hydroxide adjuvant, three weeks before removal of the organ, and a booster dose of the same amount of ovalbumin and aluminum hydroxide s.c. one week before removal of the organ. The segments were placed in organ baths filled with a nutrient solution aerated with carbogen which is a mixture of 95% oxygen and 5% carbon dioxide, and kept at 37° C., and were connected to isometric force transducers. After preincubation with mepyramine to eliminate histamine, and indomethacin for the inhibition of cyclooxygenase, 5×10^-7 mol/l carbachol (carbamylcholine chloride) was added and a contraction was induced. 10 μg/ml ovalbumin as an allergen was then added to the bath liquid and the maximum contraction of the tracheal segments which was thereby induced was correlated with the effect of the carbachol as control (=100%). The test substances were added to the organ bath 30 minutes before the allergen-induced contraction. Table 2 below indicates the IC50 values, i.e. the concentrations which cause a 50% inhibition of the contraction of isolated tracheal segments from the guinea-pig. The IC50 values were determined by testing 3-4 concentrations on 4-8 organs in each case.

Compound | IC50 [1] [nM] | also measured
COc1ccc2c(c1)c(O)nn2CCC(=O)c1ccccc1 [Example 39, 3-(3-hydroxy-5-methoxyindazole-1-yl)phenyl-propan-1-one] | 150 | 
COc1ccc2c(c1)c(O)nn2Cc1ccc(C(C)(C)C)cc1 [Example 19, 1-(4-tert-butylbenzyl)-5-methoxy-1H-indazole-3-ol] | 696 | 
COc1ccc2c(c1)c(O)nn2Cc1cccc(Cl)c1 [Example 3, 1-(3-chlorobenzyl)-5-methoxy-1H-indazole-3-ol] | 470 | 
COc1ccc2c(c1)c(O)nn2Cc1ccc(Cl)cc1Cl [Example 7, 1-(2,4-dichlorobenzyl)-5-methoxy-1H-indazole-3-ol] | 100 | 
COc1ccc2c(c1)c(O)nn2Cc1ccc2ccccc2c1 [Example 23, 5-methoxy-1-naphthalen-2-ylmethyl-1H-indazole-3-ol] | 265 | 
COc1ccc2c(c1)c(O)nn2Cc1ccc(Cl)c(Cl)c1 [Example 6, 1-(3,4-dichlorobenzyl)-5-methoxy-1H-indazole-3-ol] | 410 | % inhibition (eosinophilia) (late phase eosinophilia; 1 mg/kg i.p.): 58.8%; EOS, B (eosinophils in the group treated with the substance, with challenge) (late phase eosinophilia; 1 mg/kg i.p.): 2.9 ± 1.2 mill./animal; % inhibition (eosinophilia) (late phase eosinophilia; 30 mg/kg p.o.): 40.4%; EOS, B (eosinophils in the group treated with the substance, with challenge) (late phase eosinophilia; 30 mg/kg p.o.): 3.5 ± 1.7 mill./animal; % drop in dyn. compliance ([2]; 5.0 mg/kg oral): 25 ± 9.9%; % inhibition ([2]; 5.0 mg/kg oral): 38%; % drop in dyn. compliance ([2]; 10.0 mg/kg oral): 7.0 ± 2.7%; % inhibition ([2]; 10.0 mg/kg oral): 83%; inhibition at 3 µM ([3]; at 3.0 μmol/l): 40%
COc1ccc2c(c1)c(O)nn2Cc1cccs1 [Example 24, 5-methoxy-1-thiophen-2-ylmethyl-1H-indazole-3-ol] | 500 | 
COc1ccc2c(c1)c(O)nn2CCCC(=O)c1ccc(F)cc1 [Example 42, 1-(4-fluorophenyl)-4-(3-hydroxy-5-methoxy-1H-indazole-1-yl)butan-1-one] | 679 | 
COc1ccc2c(c1)c(O)nn2Cc1ccc(Cl)cc1 [Example 2, 1-(4-chlorobenzyl)-5-methoxy-1H-indazole-3-ol] | 400 | 
COc1ccc2c(c1)c(O)nn2Cc1ccc(OCc2ccccc2)cc1 [Example 1, 1-(4-benzyloxybenzyl)-5-methoxy-1H-indazole-3-ol] | 171 | % inhibition (eosinophilia) (late phase eosinophilia; 1 mg/kg i.p.): 48.7%; EOS, B (eosinophils in the group treated with the substance, with challenge) (late phase eosinophilia; 1 mg/kg i.p.): 3.3 ± 1.6 mill./animal; % inhibition (eosinophilia) (late phase eosinophilia; 30 mg/kg p.o.): 36.0%; EOS, B (eosinophils in the group treated with the substance, with challenge) (late phase eosinophilia; 30 mg/kg p.o.): 3.7 ± 1.7 mill./animal; inhibition at 1 µM ([3]; at 1.0 μmol/l): 36%
COc1ccc2c(c1)c(O)nn2Cc1cc2c(cc1Cl)OCO2 [Example 31] | 874 | 
COc1ccc2c(c1)c(O)nn2Cc1c(Cl)cccc1Cl [Example 8, 1-(2,6-dichlorobenzl)-5-methoxy-1H-indazole3-ol] | 750 | 
COc1ccc2c(c1)c(O)nn2Cc1ccc(OCc2ccccc2)cc1 [[no label printed]] |  | % drop in dyn. compliance ([2]; 5.0 mg/kg oral): 32 ± 13%; % inhibition ([2]; 5.0 mg/kg oral): 20%; % drop in dyn. compliance ([2]; 10.0 mg/kg oral): 9.3 ± 11%; % inhibition ([2]; 10.0 mg/kg oral): 77%
Oc1ccc2c(c1)c(O)nn2Cc1ccc(Cl)cc1Cl [Example 52, 1-(2,4-dichlorobenzyl)-1H-indazole-3,5-diol] | 258 | 
COc1ccc2c(c1)c(O)nn2CCCOc1ccccc1 [Example 38, 5-methoxy-1-(3-phenoxypropyl)-1H-indazole-3-ol] | 655 | 
COc1ccc2c(c1)c(O)nn2Cc1ccc(Br)cc1 [Example 11, 1-(4-bromobenzyl)-5-methoxy-1H-indazole-3-ol] | 765 | 
O=C(Nc1ccc(Cl)c(Cl)c1)Nc1ccc2c(c1)c(O)nn2Cc1ccc(Cl)cc1 [Example 61, 1-[1-(4-chlorobenzyl)-3-hydroxy-1H-indazole-5-yl]-3-(3,4-dichlorophenyl)urea] | 278 | 
Oc1ccc2c(c1)c(O)nn2Cc1ccc(Cl)c(Cl)c1 [Example 51, 1-(3,4-dichlorobenzyl)-1H-indazole-3,5-diol] | 748 | 
COc1ccc2c(c1)c(O)nn2Cc1ccc(-c2ccccc2)cc1 [Example 22, 1-biphenyl-4-ylmethyl-5-methoxy-1H-indazole-3-ol] | 257 | 
COc1ccc2c(c1)c(O)nn2Cc1ccccc1Cl [Example 4, 1-(2-chlorobenzyl)-5-methoxy-1H-indazole-3-ol] | 710 | 
COc1ccc2c(c1)c(O)nn2CC=Cc1ccccc1 [Example 36, 5-methoxy-1-(3-phenylallyl)-1H-indazole-3-ol] | 299 | 
COc1ccc2c(c1)c(O)nn2Cc1cccc(Cl)c1F [Example 10, 1-(3-chloro-2-flurobenzyl)-5-methoxy-1H-indazole-3-ol] | 829 | 
1-(2,4-dimethylbenzyl)-5-methoxy-1H-indazole-3-ol [Example 18] | 977 | 
COc1ccc2c(c1)c(O)nn2CCOc1ccccc1 [Example 37, 5-methoxy-1-(3-phenoxyethyl)-1H-indazole-3-ol] | 745 | 
COc1ccc2c(c1)c(O)nn2Cc1ccc(OCc2ccc3ccccc3n2)cc1 [Example 49] | 86 | 
